Common to all, as to type: organism-based
The subject of data set [1] is Cicer arietinum. Briefly: Toxicity in drug-tolerant Cicer arietinum (chickpea) assessed as effect on shoot dry weight per pot at 75 g/ha after 42 days (reference value: 0.53 gram). The settings on record: in vivo, 1008 h.
Data set [2] concerns Cicer arietinum. In words: Toxicity in drug-sensitive Cicer arietinum (chickpea) assessed as effect on nodule dry weight per gram of root dry weight at 75 g/ha after 42 days (reference value: 258 mg). To be noted: in vivo, 1008 h.
The subject of data set [3] is Cicer arietinum. Briefly: Toxicity in drug-tolerant Cicer arietinum (chickpea) assessed as effect on amount of fixed nitrogen level per gram of plant dry weight at 75 g/ha after 42 days in presence of 1.5 mM of nitrate (reference value: 5.9 mg). To be noted: in vivo, 1008 h.
Data set [4] deals with Cicer arietinum. In words: Toxicity in drug-tolerant Cicer arietinum (chickpea) assessed as effect on root dry weight per pot at 75 g/ha after 42 days (reference value: 0.30 gram). The settings on record: in vivo, 1008 h.
The test system of data set [5] is Cicer arietinum. Briefly: Toxicity in drug-sensitive Cicer arietinum (chickpea) assessed as effect on shoot dry weight per pot at 75 g/ha after 42 days (reference value: 0.50 gram). To be noted: in vivo, 1008 h.
The subject of data set [6] is Cicer arietinum. Briefly: Toxicity in drug-sensitive Cicer arietinum (chickpea) assessed as effect on shoot dry weight per pot at 75 g/ha after 42 days in presence of 1.5 mM of nitrate (reference value: 0.38 gram). To be noted: in vivo, 1008 h.
For data set [7], the system named is Cicer arietinum. Briefly: Toxicity in drug-sensitive Cicer arietinum (chickpea) assessed as effect on root nitrogen level per gram of root dry weight at 75 g/ha after 42 days (reference value: 13.4 mg). To be noted: in vivo, 1008 h.
The subject of data set [8] is Cicer arietinum. In words: Toxicity in drug-tolerant Cicer arietinum (chickpea) assessed as effect on total nitrogen level per gram of plant dry weight at 75 g/ha after 42 days (reference value: 31.1 mg). The settings on record: in vivo, 1008 h.
The subject of data set [9] is Cicer arietinum. In words: Toxicity in drug-sensitive Cicer arietinum (chickpea) assessed as effect on plant height at 75 g/ha after 42 days (reference value: 21.8 cm). The settings on record: in vivo, 1008 h.
Data set [10] relates to Cicer arietinum. In words: Toxicity in drug-sensitive Cicer arietinum (chickpea) assessed as effect on root dry weight per pot at 75 g/ha after 42 days (reference value: 0.26 gram). The settings on record: in vivo, 1008 h.
The test system of data set [11] is Cicer arietinum. In words: Toxicity in drug-sensitive Cicer arietinum (chickpea) assessed as effect on average nodule weight at 75 g/ha after 42 days (reference value: 1.31 mg). To be noted: in vivo, 1008 h.
In data set [12] the test system is Cicer arietinum. Briefly: Toxicity in drug-sensitive Cicer arietinum (chickpea) assessed as effect on amount of fixed nitrogen level per gram of plant dry weight at 75 g/ha after 42 days (reference value: 5.5 mg). To be noted: in vivo, 1008 h.
For data set [13], the system named is Cicer arietinum. Briefly: Toxicity in drug-tolerant Cicer arietinum (chickpea) assessed as effect on amount of fixed nitrogen level per gram of plant dry weight at 75 g/ha after 42 days (reference value: 5.5 mg). To be noted: in vivo, 1008 h.
In data set [14] the test system is Cicer arietinum. In words: Toxicity in drug-tolerant Cicer arietinum (chickpea) assessed as effect on shoot dry weight per pot at 75 g/ha after 42 days in presence of 1.5 mM of nitrate (reference value: 0.50 gram). To be noted: in vivo, 1008 h.
The subject of data set [15] is Cicer arietinum. Briefly: Toxicity in drug-sensitive Cicer arietinum (chickpea) assessed as effect on amount of fixed nitrogen level per gram of plant dry weight at 75 g/ha after 42 days in presence of 1.5 mM of nitrate (reference value: 6 mg). The settings on record: in vivo, 1008 h.
Data set [16] deals with Cicer arietinum. Briefly: Toxicity in drug-sensitive Cicer arietinum (chickpea) assessed as effect on total nitrogen level per gram of plant dry weight at 75 g/ha after 42 days (reference value: 34.5 mg). To be noted: in vivo, 1008 h.
For data set [17], the system named is Cicer arietinum. Briefly: Toxicity in drug-tolerant Cicer arietinum (chickpea) assessed as effect on nodule dry weight per gram of root dry weight at 75 g/ha after 42 days (reference value: 209.7 mg). The settings on record: in vivo, other, 1008 h.
In data set [18] the test system is Cicer arietinum. In words: Toxicity in drug-tolerant Cicer arietinum (chickpea) assessed as effect on root nitrogen level per gram of root dry weight at 75 g/ha after 42 days (reference value: 12.1 mg). The settings on record: in vivo, other, 1008 h.
For data set [19], the system named is Cicer arietinum. Briefly: Toxicity in drug-tolerant Cicer arietinum (chickpea) assessed as effect on plant height at 75 g/ha after 42 days (reference value: 21.4 cm). To be noted: in vivo, 1008 h.
Data set [20] concerns Cicer arietinum. Briefly: Toxicity in drug-tolerant Cicer arietinum (chickpea) assessed as effect on average nodule weight at 75 g/ha after 42 days (reference value: 1.21 mg). The settings on record: in vivo, 1008 h.

Results on one compound are retold here after ChEMBL document CHEMBL3046288, “Effect of isoxaflutole on the growth, nodulation and nitrogen fixation of chickpea (Cicer arietinum L.)” (Crop Prot, 2009).

On to `CS(=O)(=O)c1cc(C(F)(F)F)ccc1C(=O)c1cnoc1C1CC1` [ISOXAFLUTOLE], for which the Activity in the data set on Cicer arietinum [1] stood at 0.51 g; in the data set with Cicer arietinum [2], 123.7 mg; in the data set on Cicer arietinum [3], 3.1 mg; in the data set on Cicer arietinum [4], 0.27 g; with Cicer arietinum [5] it was 0.39 g; with Cicer arietinum [6] it was 0.51 g. For the same compound, the Activity with Cicer arietinum [7] is listed as 8.1 mg; with Cicer arietinum [8], 30.1 mg; with Cicer arietinum [9] it was 15.5 cm; in the data set with Cicer arietinum [10], 0.13 g; in the data set with Cicer arietinum [11] it was 0.76 mg; in the data set on Cicer arietinum [12] it was 3.5 mg. Besides, the Activity is reported as 3.7 mg with Cicer arietinum [13]; 0.54 g in the data set with Cicer arietinum [14]; 4.6 mg in the data set on Cicer arietinum [15]; 27.4 mg in the data set with Cicer arietinum [16]; 174.9 mg with Cicer arietinum [17]; 11.1 mg with Cicer arietinum [18]. The Activity is 20.6 cm with Cicer arietinum [19] and 1.16 mg with Cicer arietinum [20].
